Like-named read-outs stand apart in the source and are kept apart here.
Legend:
[1] = tested on: human iPSC-CM (iCell Cardiomyocytes2); experiment: Spent-media metabolomics (LC-MS) cardiotoxicity prediction models, blinded test set; details: for Global Tox Model Prediction: cardiotoxic vs non-cardiotoxic, at the Exposure (μM) listed per compound in Table 3, model from confirmed metabolites and viability; for Functional Model Prediction: functional vs general/structural cardiotoxicants, at the Exposure (μM) listed per compound in Table 3
[2] = cited from earlier work
[3] = tested on: human iPSC-CM (iCell Cardiomyocytes); experiment: Dose-response cell viability (CellTiter-Fluor) in iPSC-derived cardiomyocytes, maximum acceptable viability exposure; assay type: cell-based
Method: Metabolomic data was acquired to identify non-cytotoxic exposure levels and identify biomarkers of cardiotoxicity from a dose-response experiment using spent medium of iPSC-CM treated with 53 of the compounds in the training set. Briefly, human iPSC-CM (iCell® Cardiomyocytes, cat #R1007, Cellular Dynamics International) were exposed to eight concentrations of each training set compound. Spent media was collected for LC-MS analysis and cell viability was assessed with the CellTiter-Fluor Cell Viability Assay (Promega). Spent media samples were prepared and analyzed using the methods developed in Specific Aim 1. The spent media samples from iPSC-CM treated with 10 representative cardiotoxic and non-cardiotoxic compounds were analyzed with all four LC-MS methods to rank biological significant secretome features by predictive capacity. […]
The goal of the concentration-response phase of biomarker identification was to identify non-cytotoxic exposure levels that change iPSC-CM metabolism. The method included modeling feature response, calculating maximum acceptable viability (MAVE), determining response at Cmax, and MAVE, reviewing the top 4 responding features, and selecting the highest tested exposure with 90% viability.

[4] = highest exposure tested with ≥90% viability, iPSC-CM, eight concentrations

Compound	Global Tox Model Prediction [1]	Functional Model Prediction [1]	Cmax Total ([2]; therapeutic total Cmax) [nM]	MAVE (Maximum Acceptable Viability Exposure) ([3]; human) [µM]	Cmax Total ([2]; in vivo) [nM]	MAVE (Maximum Acceptable Viability Exposure) [3, 4] [µM]
CC(=O)Oc1ccccc1C(=O)O [Acetylsalicylic Acid]	−	−	10000			
CC(C)COCC(CN(Cc1ccccc1)c1ccccc1)N1CCCC1 (stereo not shown) [Bepridil]	+	+	3300			
CS(=O)(=O)OCCCCOS(C)(=O)=O [Busulfan]	+	−	50000			
O=C(O)COCCN1CCN(C(c2ccccc2)c2ccc(Cl)cc2)CC1 (stereo not shown) [Cetirizine]		−				
Cc1nc(Nc2ncc(C(=O)Nc3c(C)cccc3Cl)s2)cc(N2CCN(CCO)CC2)n1 [Dasatinib]			720	10		
COc1cccc2c1C(=O)c1c(O)c3c(c(O)c1C2=O)C[C@@](O)(C(C)=O)C[C@@H]3O[C@H]1C[C@H](N)[C@H](O)[C@H](C)O1 [Daunorubicin]			89000	0.1		
CCN[C@@H](C)Cc1cccc(C(F)(F)F)c1 [Dexfenfluramine]				30	400	
CCN1/C(=C/C=C/C=C/c2sc3ccccc3[n+]2CC)Sc2ccccc21 [Dithiazanine Iodide]			100	0.1		
CN(CCOc1ccc(NS(C)(=O)=O)cc1)CCc1ccc(NS(C)(=O)=O)cc1 [Dofetilide]			8	100		
COc1cccc2c1C(=O)c1c(O)c3c(c(O)c1C2=O)C[C@@](O)(C(=O)CO)C[C@@H]3O[C@H]1C[C@H](N)[C@H](O)[C@H](C)O1 [Doxorubicin]			15300	0.1		
COc1ccc(C(=O)Nc2ccccc2CCC2CCCCN2C)cc1 (stereo not shown) [Encainide]			710	100		
C#Cc1cccc(Nc2ncnc3cc(OCCOC)c(OCCOC)cc23)c1 [Erlotinib]			3800	3		
O=c1[nH]cc(F)c(=O)[nH]1 [Fluorouracil]			4600	100		
CCCCCCc1ccc(O)cc1O [Hexylresorcinol]			1000	30		
CC(=O)[C@]1(O)Cc2c(O)c3c(c(O)c2[C@@H](O[C@H]2C[C@H](N)[C@H](O)[C@H](C)O2)C1)C(=O)c1ccccc1C3=O [Idarubicin]			120	0.1		
CC(C)NCC(O)c1ccc(O)c(O)c1 (stereo not shown) [Isoproterenol]			10	100		
CS(=O)(=O)CCNCc1ccc(-c2ccc3ncnc(Nc4ccc(OCc5cccc(F)c5)c(Cl)c4)c3c2)o1 [Lapatinib]			4180	10		
CC[C@H](OC(C)=O)C(C[C@H](C)N(C)C)(c1ccccc1)c1ccccc1 [Levomethadyl Acetate]	+	+			600	
CCOC(=O)N1CCC(=C2c3ccc(Cl)cc3CCc3cccnc32)CC1 [Loratadine]		−				
Cc1occc(=O)c1O [Maltol]			30000	100		
CN(C)CCN(Cc1cccs1)c1ccccn1 [Methapyrilene]			15300	100		
COC(=O)c1ccc(O)cc1 [Methylparaben]			230	100		

Compound	Global Tox Model Prediction [1]	Functional Model Prediction [1]	Cmax Total ([2]; therapeutic total Cmax) [nM]	MAVE (Maximum Acceptable Viability Exposure) ([3]; human) [µM]	Cmax Total ([2]; in vivo) [nM]	MAVE (Maximum Acceptable Viability Exposure) [3, 4] [µM]
Cc1cn(-c2cc(NC(=O)c3ccc(C)c(Nc4nccc(-c5cccnc5)n4)c3)cc(C(F)(F)F)c2)cn1 [Nilotinib]	+	−	3000			
CNCCC=C1c2ccccc2CCc2ccccc21 [Nortriptyline]			570	1		
CCCN1C[C@H](CSC)C[C@@H]2c3cccc4[nH]cc(c34)C[C@H]21 [Pergolide]			3	30		
CCCOC(=O)c1cc(O)c(O)c(O)c1 [Propyl Gallate]			3000	30		
CNC(=C[N+](=O)[O-])NCCSCc1ccc(CN(C)C)o1 [Ranitidine]			1700	100		
CS(=O)(=O)c1ccc(C2=C(c3ccccc3)C(=O)OC2)cc1 [Rofecoxib]			1700	100		
CN(CCOc1ccc(CC2SC(=O)NC2=O)cc1)c1ccccn1 (stereo not shown) [Rosiglitazone]		−				
O=C1NCCN1CCN1CCC(c2cn(-c3ccc(F)cc3)c3ccc(Cl)cc23)CC1 [Sertindole]			320	0.3		
CCCc1nn(C)c2c(=O)[nH]c(-c3cc(S(=O)(=O)N4CCN(C)CC4)ccc3OCC)nc12 [Sildenafil]	−	−				
OC[C@@H](O)[C@@H](O)[C@H](O)[C@@H](O)CO [Sorbitol]			3900	100		
CC(C)NCC(O)c1ccc(NS(C)(=O)=O)cc1 (stereo not shown) [Sotalol]	+	+	15000			
OC[C@H]1O[C@@](CO)(O[C@H]2O[C@H](CO)[C@@H](O)[C@H](O)[C@H]2O)[C@@H](O)[C@@H]1O [Sucrose]	−	−	1800			
CCN(CC)CCNC(=O)c1c(C)[nH]c(/C=C2\C(=O)Nc3ccc(F)cc32)c1C [Sunitinib]			250	1		
CCCCCNC(=N)N/N=C/c1c[nH]c2ccc(OC)cc12 [Tegaserod]			80	3		
CC(C)(C)c1ccc(C(O)CCCN2CCC(C(O)(c3ccccc3)c3ccccc3)CC2)cc1 (stereo not shown) [Terfenadine]			300	3		
c1ccc2[nH]c(-c3cscn3)nc2c1 [Thiabendazole]			30800	100		
Cc1onc(-c2ccccc2)c1-c1ccc(S(N)(=O)=O)cc1 [Valdecoxib]			510	100		
COc1cc2c(Nc3ccc(Br)cc3F)ncnc2cc1OCC1CCN(C)CC1 [Vandetanib]			3300	1		
OC[C@@H](O)[C@H](O)[C@@H](O)CO [Xylitol]	−	−	500			
Arsenic Trioxide			12100			10
Phenylphenol			90			100
